Assay results as given in US4578393A, “Dihydroisoquinoline derivatives” (Beecham Group p.l.c., priority 1983, dated 1986).
Where a name gives a salt, the structure may show the parent alone. Read-outs that look alike come from different tables or passages of the source.

Key:
[1] = test system: adjuvant arthritis in the rat; test: Adjuvant arthritis test in the rat; format: in vivo; conditions: read-out: ACTIVE DOSE
Description: The test is as described by Newbould, Brit. J. Pharmacol., 1963, 21, 127-136. Compounds were active at the doses shown below.

[2] = molecular target: T1, 5-Lipoxygenase enzyme (Rattus norvegicus, UniProt P12527); test: Inhibition of 5-lipoxygenase activity (10,000 g supernatant from RBL-1 cells); format: biochemical; conditions: RBL-1 supernatant, 6.3 μm arachidonic acid, 29° C.
T1 construct: 5-Lipoxygenase enzyme was prepared as a 10,000 g supernatant from RBL-1 cells; endogenous in cells; host or cells: RBL-1 cells (10,000 g supernatant)
T1 sequence (P12527 1-673): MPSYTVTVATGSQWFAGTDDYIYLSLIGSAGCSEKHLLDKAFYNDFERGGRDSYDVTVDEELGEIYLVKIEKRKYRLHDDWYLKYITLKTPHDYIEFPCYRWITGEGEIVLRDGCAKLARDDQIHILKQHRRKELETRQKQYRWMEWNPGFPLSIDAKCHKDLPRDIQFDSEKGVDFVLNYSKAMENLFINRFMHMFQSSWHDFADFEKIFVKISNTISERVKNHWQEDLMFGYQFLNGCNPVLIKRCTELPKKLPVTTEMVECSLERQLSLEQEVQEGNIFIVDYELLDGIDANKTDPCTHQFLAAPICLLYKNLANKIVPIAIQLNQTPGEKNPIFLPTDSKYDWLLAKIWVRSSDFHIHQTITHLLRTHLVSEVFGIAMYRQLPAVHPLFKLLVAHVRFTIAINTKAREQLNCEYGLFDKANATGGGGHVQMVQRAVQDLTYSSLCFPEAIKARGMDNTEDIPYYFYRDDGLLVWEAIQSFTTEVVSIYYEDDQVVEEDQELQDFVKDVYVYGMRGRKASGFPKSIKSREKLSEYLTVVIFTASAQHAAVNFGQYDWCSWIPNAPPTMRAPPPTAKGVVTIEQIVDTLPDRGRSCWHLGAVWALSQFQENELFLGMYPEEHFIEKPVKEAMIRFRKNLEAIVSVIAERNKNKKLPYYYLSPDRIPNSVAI
Experimental: 5-Lipoxygenase enzyme was prepared as a 10,000 g supernatant from RBL-1 cells by the method of Jakschik [Jakschik, B. A., F. F. Sun, L. M. Lee, and M. M. Steinhoff, 1980, Biochem. Biophys. Res. Comm. 95, 103]. The 10,000 g supernatant was diluted with homogenization buffer to the equivalent of 1.5-2.5×10^7 cells. ml^-1 and made 2 mM with respect to CaCl2. Aliquots of 0.5 ml were then dispensed into tubes, and incubated at 29° C. with 5 μl ethanol or compound in ethanol at the desired concentration for 2 min. Then [1-^14 C] arachidonic acid was added in buffer to give a final concentration of 6.3 μm and 0.2 μCi per incubation, and the reaction continued at 29° C. for 2 min. The reaction was terminated by adding 1 ml of acetone and cooling on ice, 0.5 ml of ice-cold saline and 10 μl of 2N formic acid were added, and the mixture was extracted with 2×2 ml of chloroform. The extract was stored under N2 at -20° C. until analysis by chromatography. Activity was measured as the percentage of total radioactivity found in 5-HETE and 5,12-diHETE, and inhibition calculated as the decrease in formation of the sum of these two species in compound-treated incubates relative to control incubates.
(P values as assessed by the students `t` test).

Row | inhibition of 5-lipoxygenase (formation of 5-HETE and 5,12-diHETE) ([2]; concentration of 5 μm) [%] | inhibition of 5-lipoxygenase (formation of 5-HETE and 5,12-diHETE) ([2]; concentration of 50 μm) [%] | Structure (SMILES) | minimal effective dose ([1]; po) [mg/kg] | minimal effective dose ([1]; ip) [mg/kg]
1 | 15 | 50 | CN(C)C1=NC(c2ccccc2Cl)c2ccccc2C1.Cl (stereo not shown) [Example 1, 1-(2-Chlorophenyl)-3-dimethylamino-1,4-dihydroisoquinoline hydrochloride] | 25 | 
2 |  |  | CN(C)C1=NC(c2ccc(Cl)cc2)c2ccccc2C1.Cl.O (stereo not shown) [Example 2, 1-(4-Chlorophenyl)-3-dimethylamino-1,4-dihydroisoquinoline hydrochloride hydrate] | 12.5 | 
3 |  |  | CN(C)C1=NC(c2ccccc2F)c2ccccc2C1 (stereo not shown) [Example 10, 1-(2-Fluorophenyl)-1,4-dihydro-3-dimethylaminoisoquinoline hydrochloride] | 25 | 
4 | 37 | 92 | Br.CN(C)C1=NC(c2ccc(Cl)cc2)c2cc(O)c(O)cc2C1 (stereo not shown) [Example 30, 1-(4-Chlorophenyl)-6,7-dihydroxy-3-dimethylamino-1,4-dihydroisoquinoline hydrobromide] |  | 12.5
5 |  |  | Br.CN(C)C1=NC(c2ccc(Cl)cc2)c2c(O)cccc2C1.O (stereo not shown) [Example 31, 1-(4-Chlorophenyl)-3-dimethylamino-8-hydroxy-1,4-dihydroisoquinoline hydrobromide hydrate] |  | 20
6 |  |  | Br.CN(C)C1=NC(c2ccc(Cl)cc2)c2ccc(O)cc2C1 (stereo not shown) [Example 32, 1-(4-Chlorophenyl)-3-dimethylamino-6-hydroxy-1,4-dihydroisoquinoline hydrobromide] |  | 25
